Tests used:
Format in all cases: in vivo, Caenorhabditis elegans
[1] = tested on: C. elegans nematodes at the L1 stage; assay: Nematicide efficacy of CED-4 peptides, 96-well incubation of C. elegans L1, viability by probe touch; settings: for Percentage % Alive / Percentage % Dead (mortality rate) / # of nematodes Alive in all combined successful experiments / # of nematodes Dead in all combined successful experiments: three days, about 37° C.
Procedure: (§1) Assays were performed using 96-well plates. C. elegans nematodes at the L1 stage (refer to FIG. 1) were incubated in each of the 96 wells for three days at about 37° C. at about 0.8 mg/ml peptide concentration for each tested CED-4 peptide. Each of the selected CED-4 peptides were diluted in distilled water to 0.8 mg/ml peptide concentration. Nematodes—numbering between two nematodes and four nematodes—averaging about three nematodes were incubated in 100 μl of CED-4 peptide solution at about 0.8 mg/ml concentration in each well. After a three-day incubation period, the exposed C. elegans nematodes were checked for viability under a dissecting microscope.
The percentage of dead C. elegans from all of the successful experiments is also referred to as the “mortality rate.”
(§2) Each separate well containing nematodes was considered an independent trial experiment. A well in which all of the incubated nematodes were either clearly alive or clearly dead at the end of the incubation period was recorded as one successful experiment. A well in which some or all of the incubated nematodes could not clearly be determined as alive or dead at the end of the incubation period was recorded as one unsuccessful experiment. At a concentration of about 0.8 mg/ml, nine trial experiments were carried out for each of the twelve designed CED-4 peptides.
as §1, with “0.4” for “0.8”
as §2, with “0.4” for “0.8”, “eight” for “nine”

[2] = tested on: C. elegans ced-4 (n1162) mutant nematodes; assay: Fecundity of ced-4 mutant C. elegans fed E. coli producing CED-4
Procedure: (§3) Constructed expression cassettes generate CED-4 protein in bacteria. […] In this experiment, the ced-4 gene was sub-cloned into the pBAD-DEST49 vector. The pBAD-DEST49-ced-4 construct, and the pBAD-DEST49 empty vector were tested for synthesis of the protein CED-4. The E. coli bacteria strain (TOP 10 chem.) was grown, and once the optical density OD600 reached 0.5, the bacteria was induced by adding L-Arabinose 20% and incubated for four hours at 37° C., 226 rpm in rotary shaker (C24, incubator shaker, Edison, N.J. USA). The production of CED-4 protein was analyzed by SDS 10% acrylamide gel and commassie blue staining.
(§4) The genes ced-4 and ced-3 are required for PCD in somatic cells of C. elegans, and a loss-of-function (lf) mutation in any one of them results in increased survival rates of cells that would otherwise be eliminated by PCD. […]
(§5) The effects of CED-4 ingestion on all three different strains of C. elegans used were quantified by population size throughout several generations. After the hatched nematodes fed on either the control bacteria or the CED-4 producing bacteria for 72 hours, the nematodes in each experiment were scored for fecundity over the course of 120 hrs. Fecundity was measured by counting the number of hatched offspring. There were ten experiments replicated for each of the three analyzed C. elegans strains.

[3] = tested on: C. elegans wild-type (N2 strain) nematodes; assay: Fecundity of C. elegans wild-type nematodes fed E. coli producing CED-4
Procedure: as §3
The genes ced-4 and ced-3 are required for PCD in somatic cells of C. elegans, and a loss-of-function (lf) mutation in any one of them results in increased survival rates of cells that would otherwise be eliminated by PCD. In the experiment summarized by FIG. 5, bacteria carrying the ced-4 gene construct and bacteria carrying an empty vector were grown as described above in Section E, and used to feed C. elegans wild-type nematodes, mutant C. elegans ced-3 nematodes, and mutant C. elegans ced-4 nematodes at L1/L2 stages (refer to FIG. 1). For the experiment described in FIG. 5, C. elegans wild-type (wt), ced-3 (n717) and ced-4 (n1162) strains were synchronized, and the hatched nematodes were raised on a diet consisting of E. coli bacteria producing CED-4. Both nematodes and bacteria were sustained on NGM media and incubated at a temperature between 25° C. and 28° C.
as §5

[4] = tested on: C. elegans ced-3 (n717) mutant nematodes; assay: Fecundity of ced-3 mutant C. elegans fed E. coli producing CED-4
Procedure: as §3, §4, §5

[5] = peptide concentration of 0.4 mg/ml
[6] = peptide concentration of 0.8 mg/ml
[7] = versus non-CED-4 producing bacteria

H-ALLSGKRMPVLTFKI-OH [Peptide 10]
Percentage % Alive ([1]; 0.4 mg/ml): 30% | Percentage % Dead (mortality rate) ([1]; 0.4 mg/ml): 70% | Percentage % Alive ([1]; 0.8 mg/ml): 66.7% | Percentage % Dead (mortality rate) ([1]; 0.8 mg/ml): 33.3%

H-DLLRPVVIAPQFSRQ-OH [Peptide 2]
Percentage % Alive ([1]; 0.4 mg/ml): 92.3% | Percentage % Dead (mortality rate) ([1]; 0.4 mg/ml): 7.7% | Percentage % Alive ([1]; 0.8 mg/ml): 0% | Percentage % Dead (mortality rate) ([1]; 0.8 mg/ml): 100%

H-DVEISNAASQTCEFIEVTSLE-OH [Peptide 7]
# of nematodes Alive in all combined successful experiments ([1]; 0.4 mg/ml): 19 | # of nematodes Dead in all combined successful experiments ([1]; 0.4 mg/ml): 0 | Percentage % Alive ([1]; 0.4 mg/ml): 100% | Percentage % Dead (mortality rate) ([1]; 0.4 mg/ml): 0% | # of nematodes Alive in all combined successful experiments ([1]; 0.8 mg/ml): 18 | # of nematodes Dead in all combined successful experiments ([1]; 0.8 mg/ml): 0 | Percentage % Alive ([1]; 0.8 mg/ml): 100% | Percentage % Dead (mortality rate) ([1]; 0.8 mg/ml): 0% | nematicide efficacy [1, 5]: not associated with a high number of dead nematodes | nematicide efficacy [1, 6]: not associated with a high number of dead nematodes

H-FPKFMQLHQKFY-OH [Peptide 12]
Percentage % Alive ([1]; 0.4 mg/ml): 33.3% | # of nematodes Alive in all combined successful experiments ([1]; 0.8 mg/ml): 0 | Percentage % Alive ([1]; 0.8 mg/ml): 0%

H-LVGVECITPYSYKSLAMALQR-OH [Peptide 9]
# of nematodes Alive in all combined successful experiments ([1]; 0.4 mg/ml): 18 | # of nematodes Dead in all combined successful experiments ([1]; 0.4 mg/ml): 0 | Percentage % Alive ([1]; 0.4 mg/ml): 100% | Percentage % Dead (mortality rate) ([1]; 0.4 mg/ml): 0% | # of nematodes Alive in all combined successful experiments ([1]; 0.8 mg/ml): 8 | # of nematodes Dead in all combined successful experiments ([1]; 0.8 mg/ml): 0 | Percentage % Alive ([1]; 0.8 mg/ml): 100% | Percentage % Dead (mortality rate) ([1]; 0.8 mg/ml): 0% | nematicide efficacy [1, 5]: not associated with a high number of dead nematodes | nematicide efficacy [1, 6]: not associated with a high number of dead nematodes

H-MMFFKSCEPKTFEKMAQLNNKLESR-OH [Peptide 8]
# of nematodes Alive in all combined successful experiments ([1]; 0.4 mg/ml): 10 | Percentage % Alive ([1]; 0.4 mg/ml): 90.90% | Percentage % Dead (mortality rate) ([1]; 0.4 mg/ml): 9.09% | # of nematodes Alive in all combined successful experiments ([1]; 0.8 mg/ml): 2 | # of nematodes Dead in all combined successful experiments ([1]; 0.8 mg/ml): 0 | Percentage % Alive ([1]; 0.8 mg/ml): 100% | Percentage % Dead (mortality rate) ([1]; 0.8 mg/ml): 0% | nematicide efficacy [1, 6]: not associated with a high number of dead nematodes

H-QSHLADFLEDYIDFAINE-OH [Peptide 1]
# of nematodes Alive in all combined successful experiments ([1]; 0.4 mg/ml): 14 | # of nematodes Dead in all combined successful experiments ([1]; 0.4 mg/ml): 0 | Percentage % Alive ([1]; 0.4 mg/ml): 100% | Percentage % Dead (mortality rate) ([1]; 0.4 mg/ml): 0% | nematicide efficacy [1, 5]: not associated with a high number of dead nematodes | nematicide efficacy [1, 6]: not associated with a high number of dead nematodes

H-RQMLDRKLLLGNVPKQMTC-OH [Peptide 3]
Percentage % Alive ([1]; 0.4 mg/ml): 40% | Percentage % Dead (mortality rate) ([1]; 0.4 mg/ml): 60% | # of nematodes Dead in all combined successful experiments ([1]; 0.8 mg/ml): 20 | Percentage % Alive ([1]; 0.8 mg/ml): 0% | Percentage % Dead (mortality rate) ([1]; 0.8 mg/ml): 100%

H-TCYIREYHVDRVI-OH [Peptide 4]
Percentage % Alive ([1]; 0.4 mg/ml): 64.28% | Percentage % Alive ([1]; 0.8 mg/ml): 50%

H-TSVVLKRMICNALI-OH [Peptide 6]
# of nematodes Alive in all combined successful experiments ([1]; 0.4 mg/ml): 9 | # of nematodes Dead in all combined successful experiments ([1]; 0.4 mg/ml): 0 | Percentage % Alive ([1]; 0.4 mg/ml): 100% | Percentage % Dead (mortality rate) ([1]; 0.4 mg/ml): 0% | # of nematodes Alive in all combined successful experiments ([1]; 0.8 mg/ml): 9 | # of nematodes Dead in all combined successful experiments ([1]; 0.8 mg/ml): 0 | Percentage % Alive ([1]; 0.8 mg/ml): 100% | Percentage % Dead (mortality rate) ([1]; 0.8 mg/ml): 0% | nematicide efficacy [1, 5]: not associated with a high number of dead nematodes | nematicide efficacy [1, 6]: not associated with a high number of dead nematodes

H-VDAQTIANGISILEQRL-OH [Peptide 11]
# of nematodes Alive in all combined successful experiments ([1]; 0.4 mg/ml): 22 | # of nematodes Dead in all combined successful experiments ([1]; 0.4 mg/ml): 0 | Percentage % Alive ([1]; 0.4 mg/ml): 100% | Percentage % Dead (mortality rate) ([1]; 0.4 mg/ml): 0% | Percentage % Alive ([1]; 0.8 mg/ml): 70% | Percentage % Dead (mortality rate) ([1]; 0.8 mg/ml): 30% | nematicide efficacy [1, 5]: not associated with a high number of dead nematodes

NH3—ILLMLKSEDDLLNF-COOH (H-ILLMLKSEDDLLNF-OH) [Peptide 5, ID No. 1]
nematicide efficacy [1, 5]: not associated with a high number of dead nematodes | nematicide efficacy [1, 6]: not associated with a high number of dead nematodes

bovine serum albumin [BSA, reference compound]
# of nematodes Alive in all combined successful experiments ([1]; 0.4 mg/ml): 21 | # of nematodes Dead in all combined successful experiments ([1]; 0.4 mg/ml): 0 | Percentage % Alive ([1]; 0.4 mg/ml): 100% | # of nematodes Alive in all combined successful experiments ([1]; 0.8 mg/ml): 26 | # of nematodes Dead in all combined successful experiments ([1]; 0.8 mg/ml): 0 | Percentage % Alive ([1]; 0.8 mg/ml): 100%

B1: CED-4: 549 amino acid C. elegans protein (SEQ. ID 1, GenBank CAA48781.1), about 62 KD, produced recombinantly in E. coli; fed as CED-4 producing bacteria (protein)
chain: MLCEIECRALSTAHTRLIHDFEPRDALTYLEGKNIFTEDHSELISKMSTRLERIANFLRIYRRQASELGPLIDFFNYNNQSHLADFLEDYIDFAINEPDLLRPVVIAPQFSRQMLDRKLLLGNVPKQMTCYIREYHVDRVIKKLDEMCDLDSFFLFLHGRAGSGKSVIASQALSKSDQLIGINYDSIVWLKDSGTAPKSTFDLFTDILLMLKSEDDLLNFPSVEHVTSVVLKRMICNALIDRPNTLFVFDDVVQEETIRWAQELRLRCLVTTRDVEISNAASQTCEFIEVTSLEIDECYDFLEAYGMPMPVGEKEEDVLNKTIELSSGNPATLMMFFKSCEPKTFEKMAQLNNKLESRGLVGVECITPYSYKSLAMALQRCVEVLSDEDRSALAFAVVMPPGVDIPVKLWSCVIPVDICSNEEEQLDDEVADRLKRLSKRGALLSGKRMPVLTFKIDHIIHMFLKHVVDAQTIANGISILEQRLLEIGNNNVSVPERHIPSHFQKFRRSSASEMYPKTTEETVIRPEDFPKFMQLHQKFYDSLKNFACC
number of hatched offspring (mean) ([2]; 2 ced-4 mutant embryos per experiment, exposed to CED-4 producing bacteria, ten experiments): about 236 hatched offspring | decrease in ced-4 mutant fecundity due to exogenous CED-4 [2, 7]: statistically insignificant | number of hatched offspring (mean) ([3]; 2 wild-type embryos per experiment, fed bacteria expressing CED-4 72 hours, fecundity scored over 120 hrs, ten experiments): about 115 hatched offspring | increase in rate of cell death ([3]; wild-type fed bacteria expressing CED-4 for 6 days): approximately 2 fold | offspring produced relative to those fed bacteria containing empty expression vectors ([3]; wild-type, CED-4 fed, t-test p≦0.01): less than 50% | reduction in fecundity ([3]; wild-type, ingesting bacteria expressing CED-4): 50% | number of hatched offspring (mean) ([4]; 2 ced-3 mutant embryos per experiment, ingesting CED-4 producing bacteria, ten experiments): about 220 hatched offspring | decrease in ced-3 mutant fecundity due to exogenous CED-4 [4, 7]: statistically insignificant

Reference: patent US9125413B1, “Nematicide composition comprising CED-4 peptide” (California State University Fresno, priority 2014, dated 2015)
